What is called IC50 is the point on the concentration scale where inhibition reaches its midpoint.

The target of the first test is T1, Recombinant human cathepsin A (Homo sapiens, UniProt P10619).
T1 construct: Recombinant human cathepsin A (residues 29-480, with a C-terminal 10-His tag); 10-His (C); purchased R&D Systems 1049-SE
T1 sequence (P10619 29-312 limits assumed): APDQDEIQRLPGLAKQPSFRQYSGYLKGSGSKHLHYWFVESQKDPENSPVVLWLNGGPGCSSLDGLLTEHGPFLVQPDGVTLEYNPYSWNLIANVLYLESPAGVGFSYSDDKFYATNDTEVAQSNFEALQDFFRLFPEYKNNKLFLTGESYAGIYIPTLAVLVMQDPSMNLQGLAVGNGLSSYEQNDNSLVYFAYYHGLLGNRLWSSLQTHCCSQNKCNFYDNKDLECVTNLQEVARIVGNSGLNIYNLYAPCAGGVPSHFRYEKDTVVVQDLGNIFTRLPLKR
T1 sequence (P10619 327-480 limits assumed): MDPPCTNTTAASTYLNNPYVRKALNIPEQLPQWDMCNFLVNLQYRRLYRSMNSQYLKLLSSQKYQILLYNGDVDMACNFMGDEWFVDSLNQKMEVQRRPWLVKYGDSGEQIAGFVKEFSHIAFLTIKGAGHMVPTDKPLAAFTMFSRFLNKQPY
Nature of the test: Cathepsin A inhibitory activity. It counts as biochemical. Conditions: pharmacological test "Cathepsin A inhibitory activity"; IC50 given as class A/B/C; read-out: Activity (2): Cathepsin A inhibitory activity, IC50 class. The method in brief:
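Read-out was microfluidic separation of cleaved vs. uncleaved Bodipy FL-bradykinin (2 μM), giving turnover, % inhibition and IC50. Compound and 833 ng/ml enzyme met for 15 min RT in pH 5.5 MES/DTT before substrate (15 min RT). The 29-480 His-tagged human enzyme was first activated by cathepsin L, then E-64 (10 μM).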
On to `Cc1ccccc1[C@H](CC(=O)O)NC(=O)c1cc(O)n(-c2cccnc2)n1` [Example 143], for which the IC50 lay within 1000 to 30000 nM.
The same measure, in the same setting: next, `O=C(O)C[C@H](NC(=O)c1cc(O)n(-c2cccc(Cl)c2)n1)c1cccnc1` [Example 268]: 1000 to 30000 nM.
Regarding `O=C(O)CC(NC(=O)c1cc(O)n(-c2cccc(Cl)c2)n1)c1ccc(-c2ccc(F)cc2)cc1` (stereo not shown) [Example 267], the IC50 was 1000 to 30000 nM.
Still for that read-out and setting: next, `O=C(O)CC(NC(=O)c1cc(O)n(-c2ccc(F)cc2F)n1)c1ccc(Oc2ccccc2)cc1` (stereo not shown) [Example 199]: 100 to 1000 nM.

Still in this test, the particulars now being: read-out: Activity (2): Cathepsin A inhibitory activity (IC50 class).
Regarding `COCCOc1cc(C(=O)N[C@@H](CC(=O)O)c2ccccc2C)nn1-c1ccccc1F` [Example 617], the IC50 was less than 100 nM.
`CCOc1cc(C(=O)N[C@@H](CC(=O)O)c2ccccc2C)nn1-c1ccccc1` [Example 621]: the IC50 is less than 100 nM.
For `COc1ccccc1[C@H](CC(=O)O)NC(=O)c1cc(OC[C@@](C)(O)C(C)C)n(-c2ccccc2F)n1` [Example 783, (S)-3-{[1-(2-Fluoro-phenyl)-5-((S)-2-hydroxy-2,3-dimethyl-butoxy)-1H-pyrazole-3-carbonyl]-amino}-3-(2-methoxy-phenyl)-propionic acid], the IC50 is less than 100 nM.
The same measure, in the same setting: next, `CCOc1cc(C(=O)NC(CC(=O)O)c2ccc(F)cc2)nn1-c1ccccc1Cl` (stereo not shown) [Example 739]: 100 to 1000 nM.
`O=C(O)CC(NC(=O)c1cc(OCC2CC2)n(-c2ccccc2F)n1)c1cc(Cl)ccc1Cl` (stereo not shown) [Example 704]: the half-inhibitory concentration (IC50) is less than 100 nM.
For `Cc1ccccc1[C@H](CC(=O)O)NC(=O)c1cc(OC2CCCC2)n(-c2ccccc2F)n1` [Example 626], the IC50 was less than 100 nM.
On the same count and under the same terms, the figure for `COc1cc(C(=O)N[C@@H](CC(=O)O)c2ccccc2F)nn1-c1ccccc1F` [Example 679] is 100 to 1000 nM.
The same measure, in the same setting: next, `Cc1ccc(C(CC(=O)O)NC(=O)c2cc(O)n(-c3ccccc3Cl)n2)c(F)c1` (stereo not shown) [Example 561, 3-{[1-(2-Chloro-phenyl)-5-hydroxy-1H-pyrazole-3-carbonyl]-amino}-3-(2-fluoro-4-methyl-phenyl)-propionic acid]: 100 to 1000 nM; `Cc1ccccc1[C@H](CC(=O)O)NC(=O)c1cc(OC[C@@H]2CCC(=O)N2)n(-c2ccccc2F)n1` [Example 654]: less than 100 nM; `COc1cc(C(=O)NC(CC(=O)O)c2ccc(-c3ccccn3)cc2)nn1-c1ccccc1F` (stereo not shown) [Example 598]: less than 100 nM.

Staying with this test, now noted: read-out: Activity (2): Cathepsin A inhibitory activity, IC50 class.
Take `O=C(O)CC(NC(=O)c1cc(O)n(-c2ccccc2)n1)C1CC1` (stereo not shown) [Example 17]: the half-inhibitory concentration (IC50) was in the range of 1000 to 30000 nM.
With `CC(C)C(C)(O)COc1cc(C(=O)N[C@@H](CC(=O)O)c2ccccc2C(F)(F)F)nn1-c1ccccc1F` (stereo partly drawn) [Example 812, (S)-3-{[1-(2-Fluoro-phenyl)-5-(2-hydroxy-2,3-dimethyl-butoxy)-1H-pyrazole-3-carbonyl]-amino}-3-(2-trifluoromethyl-phenyl)-propionic acid], the 50% inhibitory concentration (IC50) was less than 100 nM.
With `O=C(O)C[C@H](NC(=O)c1cc(O)n(-c2ccccc2Cl)n1)c1ccc(Cl)cc1Cl` [Example 106], the 50% inhibitory concentration (IC50) was in the range of 100 to 1000 nM.
Still for that read-out and setting: the figure for `Cc1ccc(C)c(-n2nc(C(=O)NC(CC(=O)O)c3ccc(C#N)cc3)cc2O)c1` (stereo not shown) [Example 52] is 1000 to 30000 nM; for `O=C(O)CC(CCc1ccccc1)NC(=O)c1cc(O)n(-c2ccccc2)n1` (stereo not shown) [Example 15] it is 1000 to 30000 nM; for `Cc1cccc([C@H](CC(=O)O)NC(=O)c2cc(O)n(-c3ccccc3F)n2)c1` [Example 404] it is 100 to 1000 nM.
`O=C(O)C[C@H](NC(=O)c1cc(O)n(-c2cccc(F)c2)n1)c1ccc(Cl)cc1Cl` [Example 332]: the half-maximal inhibitory concentration (IC50) was in the range of 100 to 1000 nM.
Take `CCc1ccc(C(CC(=O)O)NC(=O)c2cc(O)n(-c3ccc(F)cc3)n2)cc1` (stereo not shown) [Example 363]: the IC50 lay within 100 to 1000 nM.

Staying with this test, now noted: recombinant human cathepsin A 833 ng/ml, Bodipy FL-labeled bradykinin 2 μM, pH 5.5; read-out: CATH-A IC50.
Regarding `Cc1ccc(C(CC(=O)O)NC(=O)c2cc(O)n(-c3ccccc3Cl)n2)c(F)c1` (stereo not shown) [Example 561, 3-{[1-(2-Chloro-phenyl)-5-hydroxy-1H-pyrazole-3-carbonyl]-amino}-3-(2-fluoro-4-methyl-phenyl)-propionic acid], the half-inhibitory concentration (IC50) was determined as 266 nM.

The test is the same for the next values; noted with them: recombinant human cathepsin A; read-out: Activity (2): Cathepsin A inhibitory activity, IC50 class.
On to `O=C(O)C[C@H](NC(=O)c1cc(O)n(-c2cccc(Cl)c2)n1)c1ccccc1F` [Example 422], for which the IC50 was in the range of 100 to 1000 nM.
For the compound `COc1ccc([C@H](CC(=O)O)NC(=O)c2cc(O)n(-c3ccc(F)cc3)n2)cn1` [Example 438], the IC50 was 100 to 1000 nM.

These data come from patent publication US8664257B2, “Oxygen-substituted 3-heteroaroylamino-propionic acid derivatives and their use as pharmaceuticals” (Sanofi, priority 2010, dated 2014).
